Laboratory results taken from the NIST ThermoML archive (doi:10.1016/j.tca.2017.12.019).
Numbers after ± are expanded uncertainties.

How the values were obtained:
[1] = Molar enthalpy of transition or fusion; details: Crystal; DSC
[2] = Crystal; DTA

Molar enthalpy of transition or fusion [1]: 8.43 ± 0.234 kcal/mol
Normal melting temperature [2]: 42.70 ± 0.7 °C
Compound: CCCCCCCCCCCC(=O)O [dodecanoic acid]
